In patent publication US9447039B2, “Indole carboxamide derivatives and uses thereof” (priority 2012, dated 2016):
Converted amounts (≈) assume the structure as drawn.

The compounds below were run on Mycobacterium tuberculosis H37Rv (ATCC #27294) (assay: Minimum Inhibitory Concentration (MIC50) determination). Details: 120 h.
Type: cell-based
Experimental: Mycobacterium tuberculosis H37Rv (ATCC #27294) (Mtb) strain was maintained in Middlebrook 7H9 broth medium supplemented with 0.05% Tween 80 and 10% ADS supplement. ADS supplement contains 5% bovine serum albumin fraction V. 2% D-dextrose and 0.8% of sodium chloride. Middlebrook 7H11 agar medium supplemented with 10% OADC (oleic acid, albumin, dextrose and catalase) was used as solid media for growing Mtb. Stock solutions of the compounds were prepared using 90% DMSO.
Minimum Inhibitory Concentration (MIC50) Determination
In Table 5 below, MIC50 is defined as the lowest concentration of the compound that inhibited 50% growth of the wild type strain compared to untreated controls. Test compounds were two or three fold serially diluted in duplicates and spotted by mosquito HTS to 384-well clear plates, resulting in 10 dilutions of each compound. A volume of 50 μl of Mtb culture (final OD600 of 0.02) was added to each well, and the assay plates were incubated at 37° C. for 5 days. Growth of bacteria was measured by reading absorbance at 600 nm using a Spectramax M2 spectrophotometer. MIC50 values were determined by using Activity Base software.

Structure (SMILES)	MIC50 [µM]
Cc1cc(C)c2cc(C(=O)NC3CCCCCC3)[nH]c2c1 [Example 3G, N-Cycloheptyl-4,6-dimethyl-1H-indole-2-carboxamide]	0.098 (≈ 0.0279 µg/mL)
CC1(C)CCC(NC(=O)c2cc3c(Cl)cc(Cl)cc3[nH]2)CC1 [Example 1A, 4,6-dichloro-N-(4,4-dimethylcyclohexyl)-1H-indole-2-carboxamide]	0.015 (≈ 0.00509 µg/mL)
C[C@H]1CCCC[C@H]1NC(=O)c1cc2ccc(F)cc2[nH]1 [Example 4AZ, 6-Fluoro-N-((1R,2S)-2-methylcyclohexyl)-1H-indole-2-carboxamide]	1.35 (≈ 0.37 µg/mL)
C[C@H]1CC[C@@H](NC(=O)c2cc3c(C#N)cc(C#N)cc3[nH]2)CC1 [Example 4AW, 4,6-Dicyano-N-(cis-4-methyl-cyclohexyl)-1H-indole-2-carboxamide]	> 20
Cc1ccc(NC(=O)c2cc3c(C)cc(C)cc3[nH]2)cc1 [Example 3K, 4,6-Dimethyl-N-(p-tolyl)-1H-indole-2-carboxamide]	5.64 (≈ 1.57 µg/mL)
Cc1cc(C)c2cc(C(=O)N[C@H]3CCC[C@@H](C)[C@H]3C)[nH]c2c1 [Example 4I, N-((1S,2R,3R)-2,3-Dimethylcyclohexyl)-4,6-dimethyl-1H-indole-2-carboxamide]	0.02 (≈ 0.00597 µg/mL)
COc1ccc2cc(C(=O)N[C@@H]3CCCC[C@@H]3C)[nH]c2c1 [Example 4AM, 6-Methoxy-N-((1R,2S)-2-methylcyclohexyl)-1H-indole-2-carboxamide]	6.19 (≈ 1.77 µg/mL)
Cc1cc(C)c2cc(C(=O)N[C@H]3CCC[C@H](C)[C@H]3C)[nH]c2c1 [Example 4E, N-((1S,2R,3S)-2,3-Dimethylcyclohexyl)-4,6-dimethyl-1H-indole-2-carboxamide]	0.08 (≈ 0.0239 µg/mL)
Cc1cc(C#N)c2cc(C(=O)N[C@@H]3CCCC[C@@H]3C)[nH]c2c1 [Example 4AK, 4-Cyano-6-methyl-N-((1R,2S)-2-methylcyclohexyl)-1H-indole-2-carboxamide]	0.02 (≈ 0.00591 µg/mL)
O=C(NC1CCC(C(F)(F)F)CC1)c1cc2c(Cl)cc(Cl)cc2[nH]1 (stereo not drawn) [Example 5A, 4,6-Dichloro-N-(4-(trifluoromethyl)-cyclohexyl)-1H-indole-2-carboxamide]	0.305 (≈ 0.116 µg/mL)
C[C@H]1CCCC[C@H]1NC(=O)c1cc2c(F)cccc2[nH]1 [Example 4AY, 4-Fluoro-N-((1R,2S)-2-methylcyclohexyl)-1H-indole-2-carboxamide]	1.83 (≈ 0.502 µg/mL)
O=C(NC1CCCCC1)c1cc2c(F)cc(F)cc2[nH]1 [Example 4BB, N-Cyclohexyl-4,6-difluoro-1H-indole-2-carboxamide]	> 20
C[C@H]1CCCC[C@H]1NC(=O)c1cc2c(Cl)cc(Cl)cc2[nH]1 [Example 4J, 4,6-Dichloro-N-((1R,2S)-2-methylcyclohexyl)-1H-indole-2-carboxamide]	0.035 (≈ 0.0114 µg/mL)
O=C(NC1CCC(CO)CC1)c1cc2c(Cl)cc(Cl)cc2[nH]1 (stereo not drawn) [Example 4AX, 4,6-Dichloro-N-(4-(hydroxymethyl)-cyclohexyl)-1H-indole-2-carboxamide]	13.5 (≈ 4.6 µg/mL)
COCC1CCC(NC(=O)c2cc3c(Cl)cc(Cl)cc3[nH]2)CC1 (stereo not drawn) [Example 8A, 4,6-Dichloro-N-(4-(methoxymethyl)cyclohexyl)-1H-indole-2-carboxamide]	1.51 (≈ 0.536 µg/mL)
Cc1ccc2[nH]c(C(=O)NC3CCCCC3)c(C)c2c1 [Example 4BD, N-cyclohexyl-3,5-dimethyl-1H-indole-2-carboxamide]	3.51 (≈ 0.949 µg/mL)
Cc1cc(C)c2cc(C(=O)NCCC(C)C)[nH]c2c1 [Example 3D, N-Isopentyl-4,6-dimethyl-1H-indole-2-carboxamide]	3.26 (≈ 0.842 µg/mL)
Cc1cc(C)c2cc(C(=O)NC3CCCCC3C(C)C)[nH]c2c1 (stereo not drawn) [Example 4O, N-(2-Isopropylcyclohexyl)-4,6-dimethyl-1H-indole-2-carboxamide]	0.765 (≈ 0.239 µg/mL)
N#Cc1ccc2cc(C(=O)NC3CCC(F)(F)CC3)[nH]c2c1 [Example 4AG, 6-Cyano-N-(4,4-difluorocyclohexyl)-1H-indole-2-carboxamide]	3.36 (≈ 1.02 µg/mL)
CC1(C)CCC(NC(=O)c2cc3c(F)cc(F)cc3[nH]2)CC1 [Example 2A, N-(4,4-Dimethylcyclohexyl)-4,6-difluoro-1H-indole-2-carboxamide]	0.023 (≈ 0.00705 µg/mL)
CC1CCC(NC(=O)c2cc3c(Cl)cccc3[nH]2)CC1 (stereo not drawn) [Example 4Y, 4-Chloro-N-(4-methylcyclohexyl)-1H-indole-2-carboxamide]	0.22 (≈ 0.064 µg/mL)
Cc1cc(C)c2cc(C(=O)Nc3ccc(F)cc3)[nH]c2c1 [Example 3C, N-(4-Fluorophenyl)-4,6-dimethyl-1H-indole-2-carboxamide]	2.45 (≈ 0.692 µg/mL)
C[C@H]1CC[C@H](NC(=O)c2cc3c(F)cc(F)cc3[nH]2)CC1 [Example 4AU, 4,6-Difluoro-N-(trans-4-methylcyclohexyl)-1H-indole-2-carboxamide]	0.56 (≈ 0.164 µg/mL)

Structure (SMILES)	MIC50 [µM]
C[C@H]1CCCC[C@H]1NC(=O)c1cc2c(F)cc(F)cc2[nH]1 [Example 4BA, 4,6-Difluoro-N-((1R,2S)-2-methylcyclohexyl)-1H-indole-2-carboxamide]	0.28 (≈ 0.0819 µg/mL)
CCC(CC)NC(=O)c1cc2c(C)cc(C)cc2[nH]1 [Example 3F, 4,6-Dimethyl-N-(pentan-3-yl)-1H-indole-2-carboxamide]	4.33 (≈ 1.12 µg/mL)
C[C@H]1CCCC[C@H]1NC(=O)c1cc2c(Br)cccc2[nH]1 [Example 4AB, 4-Bromo-N-((1R,2S)-2-methylcyclohexyl)-1H-indole-2-carboxamide]	0.29 (≈ 0.0972 µg/mL)
O=C(NC1CCC(F)(F)CC1)c1cc2c(Cl)cc(Cl)cc2[nH]1 [Example 4P, 4,6-Dichloro-N-(4,4-difluorocyclohexyl)-1H-indole-2-carboxamide]	0.565 (≈ 0.196 µg/mL)
C[C@H]1CCCC[C@H]1NC(=O)c1cc2c(C#N)cccc2[nH]1 [Example 4AD, 4-Cyano-N-((1R,2S)-2-methylcyclohexyl)-1H-indole-2-carboxamide]	0.76 (≈ 0.214 µg/mL)
Cc1cc(C)c2cc(C(=O)Nc3ccc(Cl)cc3)[nH]c2c1 [Example 3B, N-(4-Chlorophenyl)-4,6-dimethyl-1H-indole-2-carboxamide]	2.95 (≈ 0.881 µg/mL)
CC1CCC(NC(=O)c2cc3c(C(F)(F)F)cc(C(F)(F)F)cc3[nH]2)CC1 (stereo not drawn) [Example 4H, N-(4-Methylcyclohexyl)-4,6-bis(trifluoromethyl)-1H-indole-2-carboxamide]	0.32 (≈ 0.126 µg/mL)
COc1cccc2[nH]c(C(=O)N[C@@H]3CCCC[C@@H]3C)cc12 [Example 4AL, 4-Methoxy-N-((1R,2S)-2-methylcyclohexyl)-1H-indole-2-carboxamide]	1.59 (≈ 0.455 µg/mL)
Cc1cc(N2CCCCC2)cc2[nH]c(C(=O)N[C@@H]3CCCC[C@@H]3C)cc12 [Example 6C, 4-Methyl-N-((1R,2S)-2-methylcyclohexyl)-6-(piperidin-1-yl)-1H-indole-2-carboxamide]	5.12 (≈ 1.81 µg/mL)
C[C@H]1CC[C@H](NC(=O)c2cc3c(Cl)cc(Cl)cc3[nH]2)CC1 [Example 4S, 4,6-Dichloro-N-(trans-4-methylcyclohexyl)-1H-indole-2-carboxamide]	0.14 (≈ 0.0455 µg/mL)
CC1CCC(NC(=O)c2cc3ccc(Cl)c(Cl)c3[nH]2)CC1 (stereo not drawn) [Example 4W, 6,7-Dichloro-N-(4-methylcyclohexyl)-1H-indole-2-carboxamide]	0.72 (≈ 0.234 µg/mL)
Cc1cc(C)c2cc(C(=O)N[C@@H]3CCCC[C@@H]3C)[nH]c2c1 [Example 4A, 4,6-Dimethyl-N-((1R,2S)-2-methylcyclohexyl)-1H-indole-2-carboxamide]	0.07 (≈ 0.0199 µg/mL)
Cc1cc(Nc2ccccc2)cc2[nH]c(C(=O)N[C@@H]3CCCC[C@@H]3C)cc12 [Example 6A, 4-methyl-N-((1R,2S)-2-methylcyclohexyl)-6-(phenylamino)-1H-indole-2-carboxamide]	0.145 (≈ 0.0524 µg/mL)
Cc1cc(C#N)cc2[nH]c(C(=O)N[C@@H]3CCCC[C@@H]3C)cc12 [Example 4AJ, 6-Cyano-4-methyl-N-((1R,2S)-2-methylcyclohexyl)-1H-indole-2-carboxamide]	0.15 (≈ 0.0443 µg/mL)
C#CC1CCCCC1NC(=O)c1cc2c(Cl)cc(Cl)cc2[nH]1 (stereo not drawn) [Example 4BE, 4,6-Dichloro-N-(2-ethynylcyclohexyl)-1H-indole-2-carboxamide]	0.22 (≈ 0.0738 µg/mL)
O=C(NC1CCC(CF)CC1)c1cc2c(Cl)cc(Cl)cc2[nH]1 (stereo not drawn) [Example 7A, 4,6-Dichloro-N-(4-(fluoromethyl)cyclohexyl)-1H-indole-2-carboxamide]	0.14 (≈ 0.0481 µg/mL)
Cc1cc(C)c2cc(C(=O)Nc3ccccc3C)[nH]c2c1 [Example 3L, 4,6-Dimethyl-N-(o-tolyl)-1H-indole-2-carboxamide]	3.12 (≈ 0.868 µg/mL)
CC1CCC(NC(=O)c2cc3c(F)cccc3[nH]2)CC1 (stereo not drawn) [Example 4BG, 4-Fluoro-N-(4-methylcyclohexyl)-1H-indole-2-carboxamide]	2.13 (≈ 0.584 µg/mL)
Cc1cc(C)c2cc(C(=O)N[C@@H]3CCC[C@@H]3C)[nH]c2c1 [Example 4K, 4,6-Dimethyl-N-((1R,2S)-2-methylcyclopentyl)-1H-indole-2-carboxamide]	0.69 (≈ 0.187 µg/mL)
COc1ccc2[nH]c(C(=O)N[C@@H]3CCCC[C@@H]3C)cc2c1 [Example 4AR, 5-Methoxy-N-((1R,2S)-2-methylcyclohexyl)-1H-indole-2-carboxamide]	7.53 (≈ 2.16 µg/mL)
COc1cc(OC)c2cc(C(=O)N[C@@H]3CCCC[C@@H]3C)[nH]c2c1 [Example 4AO, 4,6-Dimethoxy-N-((1R,2S)-2-methylcyclohexyl)-1H-indole-2-carboxamide]	1.46 (≈ 0.462 µg/mL)
Cc1cc(C)c2cc(C(=O)N[C@@H]3CCC[C@H](C)[C@@H]3C)[nH]c2c1 [Example 4B, N-((1R,2S,3S)-2,3-Dimethylcyclohexyl)-4,6-dimethyl-1H-indole-2-carboxamide]	0.01 (≈ 0.00298 µg/mL)
